# Results as given in patent US12060333B2 (Hoffmann-La Roche Inc., priority 2021, dated 2024).
# Where two headings read alike, the source gives them in different places.
# Target: SARS-CoV-2 3CLpro (Severe acute respiratory syndrome coronavirus 2, UniProt P0DTD1)
# Test: biochemical
# [1] = read-out: IC50 (μM), SARS-CoV-2 3CLPro assay
# [2] = IC50 (μM), SARS-CoV-2 3CLPro assay
Compound,IC50 [1] [µM],IC50 [2] [µM]
"CC(C)C[C@H](NC(=O)OCc1ccccc1)C(=O)NN(CCC(N)=O)C(=O)CCl [Example 2, Benzyl N-[(1S)-1-[[(3-amino-3-oxo-propyl)-(2-chloroacetyl)amino]carbamoyl]-3-methyl-butyl]carbamate]",0.017,–
"CC(C)C[C@H](NC(=O)c1nc2ccccc2[nH]1)C(=O)NN(CCC(N)=O)C(=O)[C@H](F)Cl (single isomer, unassigned) [Example 63-B]",–,0.007
"CC(C)C[C@H](NC(=O)c1cc2cccnc2[nH]1)C(=O)NN(CCC(N)=O)C(=O)CCl [Example 44, N-[(1S)-1-[[(3-Amino-3-oxo-propyl)-(2-chloroacetyl)amino]carbamoyl]-3-methyl-butyl]-1H-pyrrolo[2,3-b]pyridine-2-carboxamide]",0.017,–
"COc1cccc2[nH]c(C(=O)N[C@@H](CC3CCCCC3)C(=O)NN(CCC(N)=O)C(=O)[C@H](F)Cl)cc12 [Example 56-A, N-[(1S)-2-[2-(3-amino-3-oxo-propyl)-2-[(2R)-2-chloro-2-fluoro-acetyl]hydrazino]-1-(cyclohexylmethyl)-2-axo-ethyl]-4-methoxy-1H-indole-2-carboxamide]",0.008,–
"CNC(=O)CCN(NC(=O)[C@H](CC(C)C)N(C)C(=O)c1cc2ccccc2[nH]1)C(=O)CCl [Example 50, N-[(1S)-1-[[(2-Chloroacetyl)-[3-(methylamino)-3-oxo-propyl]amino]carbamoyl]-3-methyl-butyl]-N-methyl-1H-indole-2-carboxamide]",0.074,–
"CC(C)C[C@H](NC(=O)c1cc2ncccc2[nH]1)C(=O)NN(CCC(N)=O)C(=O)C(F)Cl (stereo partly drawn) [Example 91, N-[(1S)-1-[[(3-amino-3-oxo-propyl)-(2-chloro-2-fluoro-acetyl)amino]carbamoyl]-3-methyl-butyl]-1H-pyrrolo[3,2-b]pyridine-2-carboxamide]",0.038,–
"CC(C)CC(NC(=O)c1cn2ccccc2n1)C(=O)NN(CCC(N)=O)C(=O)C(F)Cl (racemic) [Example 95, N-[rac-(1S)-1-[[(3-amino-3-oxo-propyl)-(2-chloro-2-fluoro-acetyl)amino]carbamoyl]-3-methyl-butyl]imidazo[1,2-a]pyridine-2-carboxamide]",–,0.65
"CC(C)(C)C[C@H](NC(=O)c1cnccn1)C(=O)NN(CCC(N)=O)C(=O)C(F)Cl (stereo partly drawn) [Example 78, N-[rac-(1S)-1-[[(3-amino-3-oxo-propyl)-(2-chloro-2-fluoro-acetyl)amino]carbamoyl]-3,3-dimethyl-butyl]pyrazine-2-carboxamide]",–,0.25
"CC(C)C[C@@H](C(=O)NN(CCC(N)=O)C(=O)CCl)N(C)C(=O)c1cc2ccccc2[nH]1 [Example 40, N-[(1S)-1-[[(3-Amino-3-axo-propyl)-(2-chloroacetyl)amino]carbamoyl]-3-methyl-butyl]-N-methyl-1H-indole-2-carboxamide]",0.007,–
"CC(C)C[C@H](NC(=O)OCc1ccccc1)C(=O)NN(CCC(N)=O)C(=O)C(F)Cl (stereo partly drawn) [Example 17, Benzyl N-[(1S)-1-[[(3-amino-3-oxo-propyl)-(2-chloro-2-fluoro-acetyl)amino]carbamoyl]-3-methyl-butyl]carbamate]",0.09,–
"COc1cc2cc(C(=O)N[C@@H](CC(C)C)C(=O)NN(CCC(N)=O)C(=O)CCl)nc-2c[nH]1 [Example 47, N-[(1S)-1-[[(3-Amino-3-oxo-propyl)-(2-chloroacetyl)amino]carbamoyl]-3-methyl-butyl]-5-methoxy-6H-pyrrolo[2,3-c]pyridine-2-carboxamide]",0.014,–
"CC(C)C[C@H](NC(=O)c1cc2ccccc2[nH]1)C(=O)NN(CCC(N)=O)C(=O)[C@@H](F)Cl (single isomer, unassigned) [Example 41-A]",–,0.005
"CC(C)C[C@H](NC(=O)c1cc2ccccc2[nH]1)C(=O)NN(CCC(N)=O)C(=O)CF [Example 31, N-[(1S)-1-[[(3-Amino-3-axo-propyl)-(2-fluoroacetyl)amino]carbamoyl]-3-methyl-butyl]-1H-indole-2-carboxamide]",–,0.65
